According to US11406576B2, “Method for removing keratotic plugs” (KAO CORPORATION, priority 2017, dated 2022):

What was measured:
[1] = Detergency against keratotic plugs: penetration of the sample into keratotic plugs; parameters: species or system human; conditions: keratotic plugs kept in contact with sample for 1 minute; results of Table 1
Description: (§1) Keratotic plugs in the nasal region were removed with “Biore Nose Pack (manufactured by Kao Corporation)”, the resulting keratotic plugs on the pack were gently taken out with tweezers.
(§2) The resulting keratotic plugs were placed on a slide glass and were covered with a cover glass, and 0.05 mL of a sample was dropwise added to an edge of the cover glass. Consequently, the sample entered into the gap between the slide glass and the cover glass by capillary phenomenon and was brought into contact with the keratotic plugs. The contact of the keratotic plugs with the sample was recorded with a digital microscope (VHX-5000, manufactured by Keyence Corporation, magnification: ×150), and the penetration of the sample into the keratotic plugs and the collapse state of the keratotic plugs were evaluated after one minute from the contact of the keratotic plugs with the sample. The results of each evaluation are shown in the columns “Detergency against keratotic plugs (penetration)” and “Detergency against keratotic plugs (during cleansing)” in Tables. The measurements were performed at 25° C.
(§3) The penetration was relatively evaluated by 11 criteria from the state 1 “the sample hardly penetrated into the keratotic plug” to the state 11 “the sample penetrated to the center of the keratotic plug”. The collapsibility by the detergency against keratotic plugs was relatively evaluated by 11 criteria from the state 1 “almost no change is observed in the external appearance of the keratotic plug” to the state 11 “peeling or separation is observed in the area from the surface layer to the central portion of the keratotic plug (the initial appearance of the keratotic plug is not retained)”.

[2] = Detergency against keratotic plugs during cleansing (collapse state); parameters: species or system human; conditions: keratotic plugs kept in contact with sample for 1 minute; results of Table 1
Description: as §1, §2, §3

[3] = Detergency against keratotic plugs after washing with water (collapse state); parameters: species or system human; conditions: keratotic plugs kept in contact with water for 1 minute after contact with sample
Excerpt: as §3
After one minute from the contact of the keratotic plugs with the sample, KimWipes (registered trademark) was brought into contact with an edge of the cover glass to remove the sample under the cover glass. Subsequently, 0.05 mL of water was dropwise added to an edge of the cover glass. The sample dropwise added with water was recorded with the digital microscope, and the collapse state of the keratotic plugs was evaluated after one minute from the contact of the keratotic plugs with water according to the criteria for evaluating collapsibility of the keratotic plugs. The results of the evaluation are shown in the column “Detergency against keratotic plugs (after washing with water)” in Table. The measurements were performed at 25° C.

[4] = cited from earlier work
[5] = system: insoluble protein (zein protein); assay: Effect of suppressing protein aggregation (precipitation of insoluble protein); conditions: results of Table 1
Description: Thirty milliliters of a sample and 0.06 g of an insoluble protein (zein protein) were placed in a 35-mL standard glass bottle, and the concentration of the insoluble protein was adjusted to 0.2 mass % (test sample). Separately, a standard sample was prepared by using water instead of the sample and adjusting the concentration of the insoluble protein to 0.2 mass %. Subsequently, the standard glass bottles were sufficiently shaken and stirred up and down (shake width: 15 cm, 20 times at a shake rate of 5 times per 3 seconds) in a thermostatic chamber of 25° C. and were left to stand for 3 minutes. The precipitation state of the insoluble protein was then visually verified, and the ratio of the amount of the precipitated standard sample to the amount of the precipitated test sample (the height of the precipitate in each standard glass bottle was measured as the precipitation amount), (precipitation amount of standard sample)/(precipitation amount of test sample), was calculated. A higher ratio indicates a higher effect of suppressing protein aggregation.

Row | Molecule | penetration into keratotic plugs (in words) [1] | collapse of keratotic plugs on contact with sample (in words) [2] | collapse of keratotic plugs on contact with water after the sample (in words) [3] | solubility in water (in words) [4] | action on proteins (in words) [5]
1 | O=P([O-])([O-])O.[Na+].[Na+] [disodium hydrogen phosphate] | hardly penetrated into keratotic plugs | did not progress | did not progress |  | 
2 | CC(C)(N)CO [AMP, 2-amino-2-methyl-1-propanol] | penetrated into keratotic plugs |  | accelerating the collapse | readily dissolved in water | 
3 | O=C([O-])O.[Na+] [sodium hydrogen carbonate] | hardly penetrated into keratotic plugs | did not progress | did not progress |  | 
4 | sodium polyoxyethylene (2) lauryl ether sulfate [POE (2) sodium lauryl sulfate] | hardly penetrated into the keratotic plugs | did not progress |  |  | dissolve the proteins
5 | CC(N)(CO)CO [AMPD, 2-amino-2-methyl-1,3-propanediol] | penetrated into keratotic plugs |  | accelerating the collapse |  | 
6 | O=P([O-])([O-])[O-].[Na+].[Na+].[Na+] [trisodium phosphate] | hardly penetrated into keratotic plugs | did not progress | did not progress |  | 
7 | NC(CO)(CO)CO [Tris, 2-amino-2-hydroxymethyl-1,3-propanediol] | penetrated into keratotic plugs |  | accelerating the collapse | readily dissolved in water | 
